Measurements from paper PMC7377239, “Cardiovascular Effects of Polychlorinated Biphenyls and Their Major Metabolites” (Environmental Health Perspectives, 2020).
Read-outs that look alike come from different tables or passages of the source.

Experiments:
[1] = test system: iCell endothelial cells (human iPSC-derived ECs); test: Tube formation (tubulogenesis) assay in iCell endothelial cells, 18 h; type: cell-based; conditions: Homo sapiens, Endothelial cell, iPSC-EC tube formation, 18 hr; for activity at 0.1 µM: 0.10 µM; for minimal effective concentration: top concentration 100.00 µM
Method in brief: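 iCell ECs (passages 1–5) seeded 7,500 cells/well on reduced-growth-factor Geltrex in starvation medium, exposed overnight at 37°C to compounds in triplicate concentration–response (0.5% DMSO vehicle). Calcein AM staining, 4× imaging, angiogenesis image analysis; readouts normalized to vehicle, four-parameter logistic fit, POD at 1 SD of vehicle; 100 μM assigned NOAEL if no response.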

[2] = test system: iCell endothelial cells (human iPSC-derived ECs); test: High-content imaging cytotoxicity in iCell endothelial cells, 24 h; type: cell-based; conditions: Homo sapiens, Endothelial cell, iPSC-EC, 24 hr; for viability at 0.1 µM / activity at 0.1 µM: 0.10 µM; for minimal effective concentration: top concentration 100.00 µM
Method in brief: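 Human iPSC-derived endothelial cells (passages 1–5) were grown to a fibronectin-coated monolayer, then exposed 24 h at 37 °C with 0.5% DMSO vehicle. Staining was Hoechst 33342, MitoTracker Orange and calcein AM, read by high-content imaging. Point of departure came from 4-parameter logistic fits, with a 1-SD vehicle cutoff and 100 µM as the top concentration.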

[3] = 0.00 µM control = 100.00, read-out: endo.mtl.18hr
[4] = 0.00 µM control = 100.00, read-out: endo.tlps.18hr
[5] = 0.00 µM control = 100.00, read-out: endo.tta.18hr
[6] = 0.00 µM control = 100.00, read-out: endo.ttl.18hr
[7] = 0.00 µM control = 100.00, read-out: endo.cyto.24hr
[8] = 0.00 µM control = 100.00, read-out: endo.mito.24hr
[9] = 0.00 µM control = 100.00, read-out: endo.mitoint.24hr
[10] = 0.00 µM control = 100.00, read-out: endo.nma.24hr
[11] = 0.00 µM control = 100.00, read-out: endo.tc.24hrs
[12] = read-out: endo.mitoint.24hr POD

## Clc1ccc(-c2ccccc2)cc1 [PCB3]
[1]; [3]
  activity at 0.01 µM: 114%
  activity at 0.1 µM: 106%
  activity at 1 µM: 119%
  activity at 10 µM: 118%
  activity at 100 µM: 107%
[1]; [4]
  activity at 0.01 µM: 108%
  activity at 0.1 µM: 111%
  activity at 1 µM: 171%
  activity at 10 µM: 103%
  activity at 100 µM: 113%
[1]; [5]
  activity at 0.01 µM: 123%
  activity at 0.1 µM: 102%
  activity at 1 µM: 126%
  activity at 10 µM: 109%
  activity at 100 µM: 93.3%
[1]; [6]
  activity at 0.01 µM: 120%
  activity at 0.1 µM: 98.7%
  activity at 1 µM: 123%
  activity at 10 µM: 111%
  activity at 100 µM: 95.4%
[1]; read-out: endo.mtl.18hr POD
  minimal effective concentration: 100 µM
[1]; read-out: endo.tlps.18hr POD
  minimal effective concentration: 100 µM
[1]; read-out: endo.tta.18hr POD
  minimal effective concentration: 100 µM
[1]; read-out: endo.ttl.18hr POD
  minimal effective concentration: 100 µM
[2]; [7]
  viability at 0.01 µM: 101%
  viability at 0.1 µM: 100%
  viability at 1 µM: 107%
  viability at 10 µM: 106%
  viability at 100 µM: 105%
[2]; [8]
  activity at 0.01 µM: 101%
  activity at 0.1 µM: 101%
  activity at 1 µM: 107%
  activity at 10 µM: 105%
  activity at 100 µM: 106%
[2]; [9]
  activity at 0.01 µM: 126%
  activity at 0.1 µM: 109%
  activity at 1 µM: 104%
  activity at 10 µM: 100%
  activity at 100 µM: 102%
[2]; [10]
  activity at 0.01 µM: 97.7%
  activity at 0.1 µM: 98%
  activity at 1 µM: 95.8%
  activity at 10 µM: 94.8%
  activity at 100 µM: 95.7%
[2]; [11]
  viability at 0.01 µM: 101%
  viability at 0.1 µM: 100%
  viability at 1 µM: 107%
  viability at 10 µM: 106%
  viability at 100 µM: 105%
[2]; read-out: endo.cyto.24hr POD
  minimal effective concentration: 100 µM
[2]; read-out: endo.mito.24hr POD
  minimal effective concentration: 100 µM
[2]; [12]
  minimal effective concentration: 100 µM
[2]; read-out: endo.nma.24hr POD
  minimal effective concentration: 100 µM
[2]; read-out: endo.tc.24hrs POD
  minimal effective concentration: 100 µM

## Clc1cccc(-c2cccc(Cl)c2)c1 [PCB11]
[1]; [3]
  activity at 0.01 µM: 98.5%
  activity at 0.1 µM: 102%
  activity at 1 µM: 105%
  activity at 10 µM: 91.6%
  activity at 100 µM: 105%
[1]; [4]
  activity at 0.01 µM: 118%
  activity at 0.1 µM: 117%
  activity at 1 µM: 125%
  activity at 10 µM: 140%
  activity at 100 µM: 114%
[1]; [5]
  activity at 0.01 µM: 148%
  activity at 0.1 µM: 118%
  activity at 1 µM: 132%
  activity at 10 µM: 80.8%
  activity at 100 µM: 150%
[1]; [6]
  activity at 0.01 µM: 143%
  activity at 0.1 µM: 116%
  activity at 1 µM: 126%
  activity at 10 µM: 80.3%
  activity at 100 µM: 150%
[1]; read-out: endo.mtl.18hr POD
  minimal effective concentration: 100 µM
[1]; read-out: endo.tlps.18hr POD
  minimal effective concentration: 100 µM
[1]; read-out: endo.tta.18hr POD
  minimal effective concentration: 100 µM
[1]; read-out: endo.ttl.18hr POD
  minimal effective concentration: 100 µM
[2]; [7]
  viability at 0.01 µM: 99.3%
  viability at 0.1 µM: 95.3%
  viability at 1 µM: 96.6%
  viability at 10 µM: 99%
  viability at 100 µM: 104%
[2]; [8]
  activity at 0.01 µM: 99.6%
  activity at 0.1 µM: 96%
  activity at 1 µM: 97%
  activity at 10 µM: 99.4%
  activity at 100 µM: 105%
[2]; [9]
  activity at 0.01 µM: 100%
  activity at 0.1 µM: 97.8%
  activity at 1 µM: 96.1%
  activity at 10 µM: 107%
  activity at 100 µM: 92.6%
[2]; [10]
  activity at 0.01 µM: 101%
  activity at 0.1 µM: 102%
  activity at 1 µM: 99.7%
  activity at 10 µM: 100%
  activity at 100 µM: 100%
[2]; [11]
  viability at 0.01 µM: 99.3%
  viability at 0.1 µM: 95.3%
  viability at 1 µM: 96.6%
  viability at 10 µM: 99%
  viability at 100 µM: 104%
[2]; read-out: endo.cyto.24hr POD
  minimal effective concentration: 100 µM
[2]; read-out: endo.mito.24hr POD
  minimal effective concentration: 100 µM
[2]; [12]
  minimal effective concentration: 100 µM
[2]; read-out: endo.nma.24hr POD
  minimal effective concentration: 100 µM
[2]; read-out: endo.tc.24hrs POD
  minimal effective concentration: 100 µM
